Where two headings read alike, the source gives them in different places.
Tests used:
LTB4 synthesis = assay: Inhibition of LTB4 synthesis; type: biochemical
Source text: (§1) A series of tests were run to determine the in vitro and in vivo pharmacology properties of the HMP LBA of this invention. A summary of the results of these tests appear below.
Inhibition of LTB4 synthesis

LTB4 chemotaxis = assay: Inhibition of LTB4 chemotaxis; type: cell-based
Source text: as §1
Inhibition of LTB4 chemotaxis

guinea pigs [1] = assay: Inhibition of 12 (R)-HETE in guinea pigs; type: in vivo, guinea pig; details: Cavia porcellus, po; i.g.
Source text: as §1
Inhibition of 12 (R)—HETE in guinea pigs

rats and guinea pig = assay: Inhibition of acetic acid colonic inflammation in rats and guinea pig; type: in vivo; details: po; i.g.
Source text: as §1
Inhibition of acetic acid colonic inflammation in rats and guinea pig

[2] = test system: LTA4 conversion into LTB4; assay: Inhibition of LTA4 conversion into LTB4; type: biochemical
Source text: as §1
Inhibition of LTA4 conversion into LTB4

[3] = test system: patients with metastatic renal carcinoma; details: for number of doses of IL-2 that could be tolerated, as related to the dose of the LBA: FIG. 2, p<0.05; for number of doses of IL-2 that could be tolerated, as related to the plasma level of the LBA: FIG. 3, p<0.03
Method: PROLEUKIN® IL-2 is administered to the patient in accordance with the labeling instructions (in brief, 600,000 IU/kg every 8 hours as tolerated). […] Therefore, 16 doses of the LA compound would be given during this same five-day period. […] These two courses constitute one cycle of IL-2.
Accordingly, the number of doses of IL-2 that can be given constitutes the single best measure of the tolerability of IL-2. The response rate, as measured by tumor shrinkage or disappearance, is the measure of antitumor activity.
The scheduled dosing regimen of IL-2 was 3× daily for a total of 14 doses over 5 days, followed by 9 days without IL-2, and then a repeat of the initial 14 doses over 5 days. The dose of IL-2 was 600,000 IU/kg administered intravenously every 8 hours.

guinea pig ear = assay: Inhibition of calcium ionophore dermal inflammation in the guinea pig ear; details: in vivo
Source text: as §1
Inhibition of calcium ionophore dermal inflammation in the guinea pig ear

[4] = Dissolution of LMP and HMP forms as a function of pH; type: physicochemical; details: for AUC of dissolution over the range of pH: pH 1.2 to 7.5; for Dissolution (%): 10 mg in 100 mL water, 37° C., 15 mins
Method: The LMP and HMP forms of the LBA of formula (I) were prepared in accordance with a process described in Examples 1 and 2, respectively. The pH of each of multiple 100 mL aliquots of distilled water was adjusted within the range of 1.2 to 7.5. Ten mg of either the LMP or HMP forms, finely ground with mortar and pestle, were placed into separate aliquots and then stirred at 37° C. for 15 mins. The dissolution characteristic of the LMP and HMP forms was measured at each pH and expressed as a percentage of the whole. Areas-under-the curve (AUCS) were calculated over the range of pH values tested. [Since the ordinate values are expressed as % dissolution and the abscissa values are expressed as pH units, then the units of AUC is expressed as the product of % dissolution times pH units or, alternatively, “%·log[[…]]” Results appear below in Table 2.

[5] = test system: human neutrophil adhesion to LTB4-stimulated umbilical vein endothelial cells; assay: Inhibition of human neutrophil adhesion to LTB4-stimulated umbilical vein endothelial cells; type: cell-based
Source text: as §1
Inhibition of human neutrophil adhesion to LTB4-stimulated umbilical vein endothelial cells

Human subjects = assay: Effect of LMP LBA and HMP LBA on hepatotoxicity in humans (alanine aminotransferase); type: in vivo
Method: Human subjects between the ages of 18 and 70 received every 8 hours single capsules containing either the LMP LBA or the HMP LBA form. The drug is prepared as a fine powder and then mixed as drug/excipients at 20/80 wt %/wt % where excipients consist of equal weights of lactose and hydroxypropyl methylcellulose. The intention of dosing was to examine the effect of increasing doses of each LBA on safety and tolerability. Standard laboratory parameters were measured, including complete blood count, chemistry panel 20, urinary analysis, and electrocardiogram (ECG). Measurements of the laboratory tests were made daily except for the ECG which was measured at baseline, 1 week, and 1 week after cessation of dosing. There were no differences in the safety profiles with the exception of liver function testing.
Because the liver plays a central role in the metabolism of drugs, the effect a drug has on liver function is an important effect to consider. An indicator of an adverse effect that a drug may have on the liver is the peak change from baseline of alanine aminotransferase (ALT). […] A significant increase of ALT is generally an increase of more than 2.

guinea pigs [6] = assay: Inhibition of LTB4 chemotaxis in guinea pigs; type: in vivo, guinea pig; details: Cavia porcellus, po; i.g.
Source text: as §1
Inhibition of LTB4 chemotaxis in guinea pigs

[7] = Pharmacokinetics of suspension and solution in the rat; type: in vivo; details: gavage, 100 mg/kg; for AUC: trapezoidal rule
Method: Adult male Munich-Wistar rats (250 g, Charles River Laboratories) received by gavage a suspension of either HMP or LMP LBA in polyethylene glycol 400 at 100 mg/kg or 100 mg/kg of an equal mass of the HMP and LMP forms in solution at pH 7.5. Non-compartmental pharmacokinetics were determined and appear below in Table 3.

[8] = test system: LTB4-induced neutrophil granulation; assay: Inhibition of LTB4-induced neutrophil granulation; type: cell-based
Source text: as §1
Inhibition of LTB4-induced neutrophil granulation

## CCCc1c(OCCCOc2ccc(C(C)=O)c(OC)c2CCC)ccc2c1OC(C(=O)O)CC2 (racemic) [HMP LBA, (±) 7-[3-(4-acetyl-3-methoxy-2-propylphenoxy)propoxy]-3,4-dihydro-8-propyl-2H-1-benzopyran-2-carboxylic acid]
LTB4 synthesis
  IC50: 2.1 µM
LTB4 chemotaxis
  Inhibition of LTB4 chemotaxis, range: 0.3 to 3.0 µM
Guinea pigs [1]
  ED50: 20 mg/kg
Rats and guinea pig
  ED50: 20 mg/kg
[2]
  IC50: 20 µM
[3]; FIG. 4
  number of doses of IL-2 that could be tolerated, as related to the dose of the LBA: rose
[3]; FIG. 4, listed as LBA
  number of doses of IL-2 that could be tolerated, as related to the dose of the LBA: increases
[3]
  number of doses of IL-2 that could be tolerated, as related to the plasma level of the LBA: rose
[3]; listed as LBA
  number of doses of IL-2 that could be tolerated, as related to the plasma level of the LBA: increases
[3]; HMP LBA doses at or above 250 mg/day, 5/27
  frequency of serious IL-2 events: 19%
[3]; HMP LBA doses of <250 mg/day, 13 events in 35 patients
  frequency of serious IL-2 events: 38%
[3]; coadministration of HMP LBA, FIG. 4
  frequency of IL-2 induced serious adverse clinical events as total exposure to IL-2 increased: significantly declined
[3]; human, in vivo
  response rate to treatment with IL-2 under LBA treatment: not diminished
[3]; oral, 75-900 mg/day, co-administered with IL-2
  tolerability: well tolerated
[3]; oral, co-administered with IL-2, 62 subjects
  maximal tolerated dose: > 900 mg/day
[3]; p<0.02
  concentration in the plasma as a function of dose: rose linearly in a dose-proportional manner
Guinea pig ear
  ED50, inhibition of calcium ionophore dermal inflammation in the guinea pig ear: 0.7 mg/ear
[4]; listed as HMP
  AUC of dissolution over the range of pH: 163 %·pH units
[4]; pH 5.0, listed as HMP
  Dissolution (%): 6%
[4]; pH 5.5, listed as HMP
  Dissolution (%): 18%
[4]; pH 6.0, listed as HMP
  Dissolution (%): 29%
[4]; pH 6.5, listed as HMP
  Dissolution (%): 50%
[4]; pH 7.0, listed as HMP
  Dissolution (%): 81%
[5]
  Inhibition of human neutrophil adhesion to LTB4-stimulated umbilical vein endothelial cells, range: 0.3 to 1.0 µM
Human subjects; daily dose 75 mg, cumulative 375 mg over 5 days
  Peak Change from Baseline Alanine Aminotransferase (multiple): 1 multiple
Human subjects; daily dose 100 mg, cumulative 500 mg over 5 days
  Peak Change from Baseline Alanine Aminotransferase (multiple): 1 multiple
Human subjects; daily dose 125 mg, cumulative 625 mg over 5 days
  Peak Change from Baseline Alanine Aminotransferase (multiple): 2 multiple
Human subjects; daily dose 150 mg, cumulative 750 mg over 5 days, listed as HMP
  Peak Change from Baseline Alanine Aminotransferase (multiple): 2 multiple
Human subjects; daily dose 175 mg, cumulative 875 mg over 5 days
  Peak Change from Baseline Alanine Aminotransferase (multiple): 2 multiple
Human subjects; daily dose 200 mg, cumulative 1000 mg over 5 days
  Peak Change from Baseline Alanine Aminotransferase (multiple): 1 multiple
Human subjects; daily dose 225 mg, cumulative 1125 mg over 5 days
  Peak Change from Baseline Alanine Aminotransferase (multiple): 0 multiple
Human subjects; daily dose 300 mg, cumulative 1500 mg over 5 days
  Peak Change from Baseline Alanine Aminotransferase (multiple): −.5 multiple
Human subjects; daily dose 450 mg, cumulative 2250 mg over 5 days
  Peak Change from Baseline Alanine Aminotransferase (multiple): 0 multiple
Human subjects; daily dose 600 mg, cumulative 3000 mg over 5 days
  Peak Change from Baseline Alanine Aminotransferase (multiple): 2 multiple
Human subjects; daily dose 750 mg, cumulative 3750 mg over 5 days
  Peak Change from Baseline Alanine Aminotransferase (multiple): 1 multiple
Human subjects; daily dose 900 mg, cumulative 4500 mg over 5 days
  Peak Change from Baseline Alanine Aminotransferase (multiple): 1 multiple
Human subjects; humans, 4500 mg over five days
  doses administered without excessive hepatotoxicity: up to 900 mg/day
Human subjects; intermittent dosing: 5 days, 9 days without exposure, 5 days, total exposure 9000 mg
  tolerability: improved even further
Guinea pigs [6]
  ED50: 0.6 mg/kg
[7]; listed as HMP
  Cmax: 13000 ng/mL
  Tmax: 2.0 h
  AUC: 65000 ng·h/mL
[8]
  Inhibition of LTB4-induced neutrophil granulation, range: 1 to 3 µM

## CCCc1c(OCCCOc2ccc(C(C)=O)c(OC)c2CCC)ccc2c1OC(C(=O)O)CC2 (racemic) [LMP LBA, (±)-7-[3-(4-acetyl-3-methoxy-2-propylphenoxy)-propoxy]3,4-dihydro-8-propyl-2H-1-benzopyran-2-carboxylic acid]
[4]; pH 1.2
  Dissolution (%): 0%
[4]; listed as LMP
  AUC of dissolution over the range of pH: 284 %·pH units
[4]; pH 3.0
  Dissolution (%): 0%
[4]; pH 4.5
  Dissolution (%): 0%
[4]; pH 5.0, listed as LMP
  Dissolution (%): 20%
[4]; pH 5.5, listed as LMP
  Dissolution (%): 48%
[4]; pH 6.0, listed as LMP
  Dissolution (%): 82%
[4]; pH 6.5, listed as LMP
  Dissolution (%): 96%
[4]; pH 7.0, listed as LMP
  Dissolution (%): 99%
[4]; pH 7.5
  Dissolution (%): 100%
Human subjects; 150 mg daily for up to 14 consecutive days (total target dose 2100 mg)
  tolerability (hepatotoxicity): not well tolerated
Human subjects; 60 and 150 mg/day
  subjects withdrawn from dosing because of adverse changes in alanine aminotransferase levels: 6/6
Human subjects; daily dose 60 mg, cumulative 300 mg over 5 days
  Peak Change from Baseline Alanine Aminotransferase (multiple): 2.5 multiple
Human subjects; daily dose 150 mg, cumulative 750 mg over 5 days, listed as LMP
  Peak Change from Baseline Alanine Aminotransferase (multiple): 2.5 multiple
[7]; listed as LMP
  Tmax: 0.7 h
[7]; male, Munich-Wistar, blood, po, read-out: Cmax
  Cmax: 10400 ng/mL
[7]; male, Munich-Wistar, blood, po, read-out: AUC
  AUC: 57000 ng·h/mL

## des-alanyl-1, serine-125 human interleukin-2 [IL-2]
[3]; patients with metastatic renal cell cancer, after a single course of treatment with IL-2
  objective response rate: 10-15%
